Results on twelve molecules are retold here after patent US20250206732A1, “COMPOUNDS AND METHODS FOR THE TARGETED DEGRADATION OF KRAS” (Arvinas Operations, Inc., priority 2022, published 2025).

For this assay, the target named is T1, AsPC-1 HiBiT-KRASG12D (Homo sapiens, UniProt P01116, G12D).
T1 construct: insert the HiBiT tag onto the N-terminus of one or more of the endogenous KRAS alleles; endogenous in cells; host or cells: AsPC-1 (ATCC CRL-1682), CRISPR-Cas9 knock-in clone, one tagged allele
Briefly: HiBiT degradation assay (G12D), AsPC-1 HiBiT-KRASG12D cells. Particulars: 24 hours treatment; for Dmax: ASPC1, AsPC-1 HiBiT-KRASG12D cells, maximum degradation observed; for DC50: AsPC-1 HiBiT-KRASG12D cells, HiBiT luminescence. Type of assay: cell-based. In a few lines: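 In this degradation format, an engineered AsPC-1 clone with HiBiT fused to the KRAS N-terminus is exposed to compounds for 24 hours, after which remaining tagged protein is quantified by lytic HiBiT luminescence.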

T1 sequence (P01116 1-188 isoform P01116-2 G12D): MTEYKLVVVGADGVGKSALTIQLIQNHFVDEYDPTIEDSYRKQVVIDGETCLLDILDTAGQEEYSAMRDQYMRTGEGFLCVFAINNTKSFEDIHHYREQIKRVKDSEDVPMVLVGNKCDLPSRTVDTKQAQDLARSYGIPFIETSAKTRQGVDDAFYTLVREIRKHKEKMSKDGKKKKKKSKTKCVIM

For the molecule `C#Cc1c(F)ccc2cc(O)cc(-c3ncc4c(N5CC6CCC(C5)N6)nc(OCCN5CCC(C6CN(c7cc([C@H](C(=O)N8C[C@H](O)C[C@H]8C(=O)N[C@@H](C)c8ccc(-c9scnc9C)cc8)C(C)C)on7)C6)CC5)nc4c3F)c12` [Compound 185], the Dmax lay in the range of 80 to 100% and the DC50 is less than 600 nM.
Consider `CCc1cccc2cc(O)cc(-c3ncc4c(N5CC6CCC(C5)N6)nc(OCCN5CCC(C(C)(C)N6CCN(c7cc([C@H](C(=O)N8C[C@H](O)C[C@H]8C(=O)N[C@@H](C)c8ccc(-c9scnc9C)cc8)C(C)C)on7)CC6)CC5)nc4c3F)c12` [Compound 186, (2S,4R)-1-[(2R)-2-(3-{4-[2-(1-{2-[(4-{3,8-diazabicyclo[3.2.1]octan-3-yl}-7-(8-ethyl-3-hydroxynaphthalen-1-yl)-8-fluoropyrido[4,3-d]pyrimidin-2-yl)oxy]ethyl}piperidin-4-yl)propan-2-yl]piperazin-1-yl}-1,2-oxazol-5-yl)-3-methylbutanoyl]-4-hydroxy-N-[(1S)-1-[4-(4-methyl-1,3-thiazol-5-yl)phenyl]ethyl] pyrrolidine-2-carboxamide], for which the Dmax is 80 to 100% and the DC50 was less than 600 nM.
The molecule `CCc1cccc2cc(O)cc(-c3ncc4c(N5C[C@H]6CC[C@@H](C5)N6)nc(OCCN5CCC(C)(CN6CCN(c7cc([C@H](C(=O)N8C[C@H](O)C[C@H]8C(=O)N[C@@H](C)c8ccc(-c9scnc9C)cc8)C(C)C)on7)CC6)CC5)nc4c3F)c12` [Compound 187, (2S,4R)-1-((R)-2-(3-(4-((1-(2-((4-((1R,5S)-3,8-diazabicyclo[3.2.1]octan-3-yl)-7-(8-ethyl-3-hydroxynaphthalen-1-yl)-8-fluoropyrido[4,3-d]pyrimidin-2-yl)oxy)ethyl)-4-methylpiperidin-4-yl)methyl)piperazin-1-yl)isoxazol-5-yl)-3-methylbutanoyl)-4-hydroxy-N—((S)-1-(4-(4-methylthiazol-5-yl)phenyl)ethyl)pyrrolidine-2-carboxamide] gave a Dmax of 80 to 100% and a DC50 of less than 600 nM.
As to `CCc1cccc2cc(O)cc(-c3ncc4c(N5C[C@H]6CC[C@@H](C5)N6)nc(OCCN5CCC(C)(CN6CCN(c7cc([C@@H](C(=O)N8C[C@H](O)C[C@H]8C(=O)N[C@@H](C)c8ccc(-c9scnc9C)cc8)C(C)C)on7)CC6)CC5)nc4c3F)c12` [Compound 188, (2S,4R)-1-((S)-2-(3-(4-((1-(2-((4-((1R,5S)-3,8-diazabicyclo[3.2.1]octan-3-yl)-7-(8-ethyl-3-hydroxynaphthalen-1-yl)-8-fluoropyrido[4,3-d]pyrimidin-2-yl)oxy)ethyl)-4-methylpiperidin-4-yl)methyl)piperazin-1-yl)isoxazol-5-yl)-3-methylbutanoyl)-4-hydroxy-N—((S)-1-(4-(4-methylthiazol-5-yl)phenyl)ethyl)pyrrolidine-2-carboxamide], the Dmax fell in the range of 20 to 60% and the DC50 was 1000 to 3000 nM.
The molecule `CCc1cccc2cc(O)cc(-c3ncc4c(N5CC6CCC(C5)N6)nc(N5CC(CN6CCC(CC7CN(c8cc([C@@H](C(=O)N9C[C@H](O)C[C@H]9C(=O)N[C@@H](C)c9ccc(-c%10scnc%10C)cc9)C(C)C)on8)C7)CC6)C5)nc4c3F)c12` [Compound 189, (2S,4R)-1-[(2S)-2-(3-{3-[(1-{[1-(4-{3,8-diazabicyclo[3.2.1]octan-3-yl}-7-(8-ethyl-3-hydroxynaphthalen-1-yl)-8-fluoropyrido[4,3-d]pyrimidin-2-yl)azetidin-3-yl]methyl}piperidin-4-yl)methyl]azetidin-1-yl}-1,2-oxazol-5-yl)-3-methylbutanoyl]-4-hydroxy-N-[(1S)-1-[4-(4-methyl-1,3-thiazol-5-yl)phenyl]ethyl]pyrrolidine-2-carboxamide] yielded a DC50 greater than 3000 nM.
As to `C#Cc1c(F)ccc2cc(O)cc(-c3ncc4c(N5CC6CCC(C5)N6)nc(OCCN5CCC(CN6CCN(c7cc([C@H](C(=O)N8C[C@H](O)C[C@H]8C(=O)N[C@@H](C)c8ccc(-c9ccnn9C)cc8)C(C)C)on7)CC6)CC5)nc4c3F)c12` [Compound 190, (2S,4R)-1-[(2R)-2-(3-{4-[(1-{2-[(4-{3,8-diazabicyclo[3.2.1]octan-3-yl}-7-(8-ethynyl-7-fluoro-3-hydroxynaphthalen-1-yl)-8-fluoropyrido[4,3-d]pyrimidin-2-yl)oxy]ethyl}piperidin-4-yl)methyl]piperazin-1-yl}-1,2-oxazol-5-yl)-3-methylbutanoyl]-4-hydroxy-N-[(1S)-1-[4-(1-methyl-1H-pyrazol-5-yl)phenyl]ethyl] pyrrolidine-2-carboxamide], the Dmax lay in the range of 80 to 100% and the DC50 was less than 600 nM.
As for `CCc1cccc2cc(O)cc(-c3ncc4c(N5CC6CCC(C5)N6)nc(OCCN5CCC(CN6CCN(c7cc([C@H](C(=O)N8C[C@H](O)C[C@H]8C(=O)N[C@@H](C)c8ccc(-c9ccnn9C)cc8)C(C)C)on7)CC6)CC5)nc4c3F)c12` [Compound 191, (2S,4R)-1-[(2R)-2-(3-{4-[(1-{2-[(4-{3,8-diazabicyclo[3.2.1]octan-3-yl}-7-(8-ethyl-3-hydroxynaphthalen-1-yl)-8-fluoropyrido[4,3-d]pyrimidin-2-yl)oxy]ethyl}piperidin-4-yl)methyl]piperazin-1-yl}-1,2-oxazol-5-yl)-3-methylbutanoyl]-4-hydroxy-N-[(1S)-1-[4-(1-methyl-1H-pyrazol-5-yl)phenyl]ethyl]pyrrolidine-2-carboxamide], the Dmax fell in the range of 80 to 100% and the DC50 was less than 600 nM.
Molecule `CCc1cccc2cc(O)cc(-c3ncc4c(N5CC6CCC(C5)N6)nc(N5CCC(CN6CCC(CC7CN(c8cc([C@H](C(=O)N9C[C@H](O)C[C@H]9C(=O)N[C@@H](C)c9ccc(-c%10scnc%10C)cc9)C(C)C)on8)C7)CC6)CC5)nc4c3F)c12` [Compound 192, (2S,4R)-1-[(2R)-2-(3-{3-[(1-{[1-(4-{3,8-diazabicyclo[3.2.1]octan-3-yl}-7-(8-ethyl-3-hydroxynaphthalen-1-yl)-8-fluoropyrido[4,3-d]pyrimidin-2-yl)piperidin-4-yl]methyl}piperidin-4-yl)methyl]azetidin-1-yl}-1,2-oxazol-5-yl)-3-methylbutanoyl]-4-hydroxy-N-[(1S)-1-[4-(4-methyl-1,3-thiazol-5-yl)phenyl]ethyl]pyrrolidine-2-carboxamide] yielded a DC50 greater than 3000 nM.
Molecule `CCc1cccc2cc(O)cc(-c3ncc4c(N5CC6CCC(C5)N6)nc(N5CCC(CN6CCC(CC7CN(c8cc([C@@H](C(=O)N9C[C@H](O)C[C@H]9C(=O)N[C@@H](C)c9ccc(-c%10scnc%10C)cc9)C(C)C)on8)C7)CC6)CC5)nc4c3F)c12` [Compound 193, (2S,4R)-1-[(2S)-2-(3-{3-[(1-{[1-(4-{3,8-diazabicyclo[3.2.1]octan-3-yl}-7-(8-ethyl-3-hydroxynaphthalen-1-yl)-8-fluoropyrido[4,3-d]pyrimidin-2-yl)piperidin-4-yl]methyl}piperidin-4-yl)methyl]azetidin-1-yl}-1,2-oxazol-5-yl)-3-methylbutanoyl]-4-hydroxy-N-[(1S)-1-[4-(4-methyl-1,3-thiazol-5-yl)phenyl]ethyl]pyrrolidine-2-carboxamide] came in with a DC50 greater than 3000 nM.
Take `CCc1cccc2cc(O)cc(-c3ncc4c(N5CC6CCC(C5)N6)nc(OCCN5CCC(F)(CN6CCN(c7cc([C@H](C(=O)N8C[C@H](O)C[C@H]8C(=O)N[C@@H](C)c8ccc(-c9scnc9C)cc8)C(C)C)on7)[C@H](C)C6)CC5)nc4c3F)c12` [Compound 194, (2S,4R)-1-[(2R)-2-{3-[(2R)-4-[(1-{2-[(4-{3,8-diazabicyclo[3.2.1]octan-3-yl}-7-(8-ethyl-3-hydroxynaphthalen-1-yl)-8-fluoropyrido[4,3-d]pyrimidin-2-yl)oxy]ethyl}-4-fluoropiperidin-4-yl)methyl]-2-methylpiperazin-1-yl]-1,2-oxazol-5-yl}-3-methylbutanoyl]-4-hydroxy-N-[(1S)-1-[4-(4-methyl-1,3-thiazol-5-yl)phenyl]ethyl]pyrrolidine-2-carboxamide]: the Dmax was 80 to 100% and the DC50 was less than 600 nM.
On to `CCc1cccc2cc(O)cc(-c3ncc4c(N5CC6CCC(C5)N6)nc(OCCN5CCC(F)(CN6CCN(c7cc([C@@H](C(=O)N8C[C@H](O)C[C@H]8C(=O)N[C@@H](C)c8ccc(-c9scnc9C)cc8)C(C)C)on7)C[C@H]6C)CC5)nc4c3F)c12` [Compound 195, (2S,4R)-1-[(2S)-2-{3-[(3R)-4-[(1-{2-[(4-{3,8-diazabicyclo[3.2.1]octan-3-yl}-7-(8-ethyl-3-hydroxynaphthalen-1-yl)-8-fluoropyrido[4,3-d]pyrimidin-2-yl)oxy]ethyl}-4-fluoropiperidin-4-yl)methyl]-3-methylpiperazin-1-yl]-1,2-oxazol-5-yl}-3-methylbutanoyl]-4-hydroxy-N-[(1S)-1-[4-(4-methyl-1,3-thiazol-5-yl)phenyl]ethyl]pyrrolidine-2-carboxamide], for which the Dmax was less than 20% and the DC50 is 1000 to 3000 nM.
In the case of `CCc1cccc2cc(O)cc(-c3ncc4c(N5CC6CCC(C5)N6)nc(OCCN5CCC(F)(CN6CCN(c7cc([C@@H](C(=O)N8C[C@H](O)C[C@H]8C(=O)N[C@@H](C)c8ccc(-c9scnc9C)cc8)C(C)C)on7)C[C@@H]6C)CC5)nc4c3F)c12` [Compound 196, (2S,4R)-1-[(2S)-2-{3-[(3S)-4-[(1-{2-[(4-{3,8-diazabicyclo[3.2.1]octan-3-yl}-7-(8-ethyl-3-hydroxynaphthalen-1-yl)-8-fluoropyrido[4,3-d]pyrimidin-2-yl)oxy]ethyl}-4-fluoropiperidin-4-yl)methyl]-3-methylpiperazin-1-yl]-1,2-oxazol-5-yl}-3-methylbutanoyl]-4-hydroxy-N-[(1S)-1-[4-(4-methyl-1,3-thiazol-5-yl)phenyl]ethyl]pyrrolidine-2-carboxamide], the Dmax lay in the range of 20 to 60% and the DC50 fell in the range of 600 to 1000 nM.
